{
  "source": "patent US20180200326A1",
  "about": "“ANG-(1-7) AND DERIVATIVE OLIGOPEPTIDES FOR THE TREATMENT OF TRAUMATIC BRAIN INJURY AND OTHER COGNITIVE IMPAIRMENTS” (Arizona Board Of Regents On Behalf Of The University of …, priority 2017, published 2018)",
  "key": {"[1]": {"conditions": "mouse, serum", "method": "(§3) Aliquots were withdrawn at the indicated time intervals and the peptide concentration was determined using HPLC-MS and expressed as a percentage of the initial concentration."}, "[2]": {"assay": "In vivo serum and CSF concentration after subcutaneous injection", "conditions": "naïve mice; 10 mg/kg subcutaneous; microdialysis probe; corrected for basal CSF levels", "method": "(§4) The peptides (10 mg/kg) or vehicle control were individually subcutaneously injected into naïve mice. Serum concentrations were determined every 10 minutes by HPLC-MS using a 20-30 μl blood sample. […] CSF samples were simultaneously withdrawn from the same animals via a microdialysis probe and assayed for the peptide concentration and corrected for basal CSF levels."}, "[3]": {"tested_on": "human umbilical vascular endothelial cells (HUVEC)", "assay": "NO production assay (DAF-FM fluorescence, microplate reader)", "assay_type": "cell-based", "conditions": "5 minutes exposure; for NO over control levels (relative peak fluorescence intensity): normalized to control fluorescence", "excerpt": "(§1) To isolate primary hippocampal CA1 neuronal cells, whole brain was removed from neonatal rat pups (1-2 day old) and the cortices dissected away. The hippocampus was isolated and the CA1 field was excised and placed in buffer. After gentle disruption in digestion buffer, the cells were counted, placed in culture media, and plated in a 96-well format coated with poly-d-lysine. At the time of plating, cells were approximately at 50% density and were allowed to culture to 70-80% density before starting the assay. Commercially available HUVEC (Life Technologies/Thermo Fisher) was thawed and plated (5000-10,000 cells/well) in a 96-well format coated with gelatin. HUVEC cells were allowed to culture overnight before starting the assay.\nAs a screen for mechanisms of action of oligopeptides of the invention, the ability to increase NO production of three oligopeptides of the invention (PN-A3, PN-A4 and PN-A5) were characterized and compared to native Ang-(1-7). Human umbilical vascular endothelial cells (HUVEC) culture plates received fluorescence reaction buffer (0.2 M phosphate buffer, pH 7, 1 mM EDTA, 0.1% glucose) containing diaminofluorescein-FM diacetate (DAF-FM, 1 μM) to measure real-time NO production. Time-resolved (10 minutes) fluorescent intensity was detected using a BioTek Synergy 2 microplate reader with excitation at 485 nm and emission at 535 nm. DAF-FM is a sensitive flourometric derivative for the selective detection of NO in live cells.\nValues were normalized to control fluorescence."}, "[4]": {"tested_on": "CHF mice (object recognition memory impairment)", "assay": "Novel Object Recognition (NOR) in congestive heart failure mice", "assay_type": "in vivo, mouse", "conditions": "1 mg/kg/day subcutaneous, approximately 21 days, n=11, DRatio=(t novel−t familiar)/(t novel+t familiar), CHF-saline M=−0.05, Sham-saline M=+0.52", "protocol": "(§2) A total of 33, male C57Bl/6J adult mice (Harlan, 8-10 weeks old) were used. Mice were randomly assigned to either the sham (n=12) or congestive heart failure (CHF) group (n=21). Experimental groups are described as follows: sham+saline, CHF+saline, CHF+PN-A5. All mice prior to surgery were weighed and anesthetized. For the CHF mice, MI was induced by ligation of the left coronary artery (LCA). Under anesthesia (2.5% isoflurane in a mixture of air and O2) a thoracotomy was performed at the fourth left intercostal space and the LCA permanently ligated to induce a myocardial infarction (MI). […]\nThe apparatus consisted of an evenly illuminated Plexiglas box (12 cm×12 cm×12 cm) placed on a table inside an isolated observation room. […] The mouse behavior and exploration of objects was recorded with a digital camera. […]\nThe novel object recognition task included 3 phases: habituation phase, familiarization phase, and test phase. […] Exploration was scored by an observer blind to the mouse's surgical group (CHF vs. Sham). […]\nDiscrimination ratios were calculated from the time spent exploring the novel object minus time spent exploring the familiar object during the test phase divided by the total exploration time. […] Data were analyzed from first 2 minutes of ‘test phase’. […]"}, "[5]": {"tested_on": "CHF mice (spatial memory impairment)", "assay": "Morris water task (spatial memory) in congestive heart failure mice", "assay_type": "in vivo, mouse", "conditions": "1 mg/kg/day subcutaneous, approximately 25 days, day 3 of Morris swim task, n=11, CHF-saline M=32.5", "protocol": "as §2, with “(MI). Occlusion of the LCA was confirmed by observing blanching, a slight change in color of the anterior wall of the left ventricle downstream of the ligature. Sham mice underwent the same procedure with the exception of ligating the LCA.” for “(MI).”\nDuring the spatial version of the Morris water task, all animals were given 6 training trials per day over 4 consecutive days. […] Performance on the swim task was analyzed with a commercial software application (ANY-maze, Wood Dale, Ill.). Because different release locations and differences in swimming velocity produce variability in the latency to reach the escape platform, a corrected integrated path length (CIPL) was calculated to ensure comparability of mice performance across different release locations. […]"}, "[6]": {"tested_on": "human umbilical vascular endothelial cells (HUVEC)", "assay": "xCELLigence RTCA cell activation (cell impedance)", "assay_type": "cell-based", "conditions": "average of 4 wells, normalized to CI at compound addition", "excerpt": "as §1\nThe xCELLigence system Real-Time Cell Analyzer (RTCA), developed by Roche Applied Science, uses microelectronic biosensor technology to do dynamic, real-time, label-free, and non-invasive analysis of cellular events including G-protein receptor activation of cells. The RTCA analysis was utilized to measure the potency and relative ability of oligopeptides of the invention and native Ang-(1-7) to activate human umbilical vascular endothelial cells (HUVEC) in culture. Following uniform cellular adherence based on a linear increase in cell impedance (CI), HUVECs were treated with Ang-(1-7) and oligopeptides of the invention. Each trace of the CI over time in FIG. 1 represents the average of 4 wells normalized to CI at the time of compound addition."}, "[7]": {"assay": "In Vitro Serum Half-Life Assay", "conditions": "mouse", "method": "as §3"}, "in vivo": {"assay": "in vivo", "conditions": "mouse, sc, 10 mg/kg", "method": "as §4"}, "[8]": {"conditions": "mouse, in vivo, sc, 10 mg/kg", "method": "as §4"}, "Mas receptor (MasR)": {"target": "T1, Mas receptor (MasR) (Homo sapiens, UniProt P04201)", "T1 sequence (P04201 1-325)": "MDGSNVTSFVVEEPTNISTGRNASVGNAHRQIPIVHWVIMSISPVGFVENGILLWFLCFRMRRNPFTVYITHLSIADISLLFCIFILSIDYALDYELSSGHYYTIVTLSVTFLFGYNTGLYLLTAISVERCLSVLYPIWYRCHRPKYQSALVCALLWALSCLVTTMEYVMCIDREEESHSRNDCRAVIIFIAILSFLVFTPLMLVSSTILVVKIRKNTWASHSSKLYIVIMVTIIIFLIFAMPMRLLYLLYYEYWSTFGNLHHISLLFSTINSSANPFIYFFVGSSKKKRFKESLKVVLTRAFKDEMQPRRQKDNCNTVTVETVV", "conditions": "binding to GPCR Mas receptor (MasR); cited from earlier work"}},
  "note": "Read-outs that look alike come from different tables or passages of the source. Peptide text beside a SMILES is read from it. * marks the point of attachment. X2 = OC[C@H]1O[C@@H](O[C@H]2[C@H](O)[C@@H](O)C(*)O[C@@H]2CO)[C@H](O)[C@@H](O)[C@H]1O; X1 = OC[C@H]1OC(*)[C@H](O)[C@@H](O)[C@@H]1O",
  "data": [
    {"compound": "CC[C@H](C)[C@H](NC(=O)[C@H](Cc1ccc(O)cc1)NC(=O)[C@@H](NC(=O)[C@H](CCCNC(=N)N)NC(=O)[C@@H](N)CC(=O)O)C(C)C)C(=O)N[C@@H](Cc1c[nH]cn1)C(=O)N1CCC[C@H]1C(N)=O", "note": "[PN-A2, Ang 1-7-NH2]", "values": [
      {"measurement": "half-life", "setting": "[1]", "result": 21, "unit": "min"}
    ]},
    {"compound": "CC[C@H](C)[C@H](NC(=O)[C@H](Cc1ccc(O)cc1)NC(=O)[C@@H](NC(=O)[C@H](CCCNC(=N)N)NC(=O)[C@@H](N)CC(=O)O)C(C)C)C(=O)N[C@@H](Cc1c[nH]cn1)C(=O)N[C@@H](COC1O[C@H](CO)[C@@H](O)[C@H](O)[C@H]1O)C(N)=O", "note": "(stereo partly drawn) [PN-A5, Ang 1-6-Ser(OGlc)-NH2] (H-DRVYIHS(X1)-NH2; N-terminus assumed)", "values": [
      {"measurement": "maximum CSF concentration", "setting": "[2]", "result": "about 400 nM"},
      {"measurement": "NO over control levels (relative peak fluorescence intensity)", "setting": "[3]", "result": "significant elevation"},
      {"measurement": "NO production compared with native Ang-(1-7)", "setting": "[3]; p<0.05", "result": "significantly enhancing NO production"},
      {"measurement": "discrimination ratio in NOR test (mean M)", "setting": "[4]", "result": "+0.38"},
      {"measurement": "corrected integrated path length (CIPL), mean M", "setting": "[5]", "result": 23.5},
      {"measurement": "increase in CI (cell impedance) over the native Ang-(1-7)", "setting": "[6]; 10 nM", "result": "~2", "unit": "fold"},
      {"measurement": "increase in CI (cell impedance) over the native Ang-(1-7)", "setting": "[6]; 100 nM", "result": "~2", "unit": "fold"}
    ]},
    {"compound": "CC[C@H](C)[C@H](NC(=O)[C@H](Cc1ccc(O)cc1)NC(=O)[C@@H](NC(=O)[C@H](CCCNC(=N)N)NC(=O)[C@@H](N)CC(=O)O)C(C)C)C(=O)N[C@@H](Cc1c[nH]cn1)C(=O)N[C@@H](COC1O[C@H](CO)[C@@H](O[C@@H]2O[C@H](CO)[C@H](O)[C@H](O)[C@H]2O)[C@H](O)[C@H]1O)C(N)=O", "note": "(stereo partly drawn) [PN-A6, Ang 1-6-Ser(OLac)-NH2] (H-DRVYIHS(X2)-NH2)", "values": [
      {"measurement": "half-life", "setting": "[7]", "result": 348, "unit": "min"}
    ]},
    {"compound": "CC[C@H](C)[C@H](NC(=O)[C@H](Cc1ccc(O)cc1)NC(=O)[C@@H](NC(=O)[C@H](CCCNC(=N)N)NC(=O)[C@@H](N)CC(=O)O)C(C)C)C(=O)N[C@@H](Cc1c[nH]cn1)C(=O)N1CCC[C@H]1C(=O)O", "note": "[native Ang-(1-7), Asp-Arg-Val-Tyr-Ile-His-Pro]", "values": [
      {"measurement": "Cmax", "setting": "in vivo", "result": "~200", "unit": "nM"},
      {"measurement": "maximum CSF concentration", "setting": "[8]", "result": "about 50 nM"},
      {"measurement": "Kd", "setting": "Mas receptor (MasR)", "result": 0.83, "unit": "nM"},
      {"measurement": "half-life", "setting": "[1]", "result": 14, "unit": "min"}
    ]},
    {"compound": "PN-A3: native Ang(1-7) sequence with added C-terminal Ser8, glucosylated and C-terminally amidated (NH2); SEQ ID NO: 9 (DRVYIHPS; glucosylated, C-terminal amide; (8)..(8) Glycosylated; (8)..(8) Carboxy terminal NH2; See specification as filed for detailed description of substitutions and preferred embodiments)", "values": [
      {"measurement": "NO over control levels (relative peak fluorescence intensity)", "setting": "[3]", "result": "significant elevation"},
      {"measurement": "increase in CI (cell impedance) over the native Ang-(1-7)", "setting": "[6]; 10 nM", "result": "~2", "unit": "fold"},
      {"measurement": "increase in CI (cell impedance) over the native Ang-(1-7)", "setting": "[6]; 100 nM", "result": "~2", "unit": "fold"}
    ]},
    {"compound": "PN-A4: native Ang(1-7) sequence with added C-terminal Ser8, lactosylated and C-terminally amidated (NH2); SEQ ID NO: 9 (DRVYIHPS; lactosylated, C-terminal amide; (8)..(8) Glycosylated; (8)..(8) Carboxy terminal NH2; See specification as filed for detailed description of substitutions and preferred embodiments)", "values": [
      {"measurement": "NO over control levels (relative peak fluorescence intensity)", "setting": "[3]", "result": "significant elevation"},
      {"measurement": "increase in CI (cell impedance) over the native Ang-(1-7)", "setting": "[6]; 100 nM", "result": "~2", "unit": "fold"}
    ]}
  ]
}
